Experimental data: patent publication US8969549B2, “Antioxidant small molecules aimed at targeting metal-based oxidative stress in neurogenerative disorders” (Texas Christian University, priority 2013, dated 2015)

Assays:
FRDA cells [1] = assay: Calcein AM viability assay with BSO; format: cell-based, human; conditions: Homo sapiens, 48 hour BSO 1 mM, compound 1 nM final, read-out: cell viability compared to untreated control cells
Description: FIG. 5 is a graph showing a Calcien AM viability assay of FRDA cells after 48 hour exposure to BSO [1 mM] with 1-4 [1 nM final].
FIG. 10 is a graph showing Calcein AM viability assay of FRDA cells after 48 hour exposure to BSO [1 mM] followed by addition of 2 [various concentrations].
FRDA cells have higher levels of ROS due to mitochondrial misfunction associated with frataxin expression and therefore serve as a good model for ROS protection. […] Calcein AM, a non-fluorescent, hydrophobic compound that easily permeates intact, live cells, was used as an indicator for cell viability.
This dose response is visualized in the fluorescent cell images shown in FIG. 11 with increased cell survival corresponding to increasing 2 in the nM range.

[2] = ABTS radical assay standardized against Trolox; format: biochemical; conditions: ligand concentration 100 μM
Aβ1-40 [3] = assay: Turbidity assay of metal-induced amyloid aggregation; format: biochemical; conditions: for disaggregation of pre-formed metal-induced Aβ1-40 aggregates (turbidity): copper(II) or zinc(II) aggregates, ligand added afterwards
Text: Metal ions (copper and zinc) bind to a histidine rich domain in amyloid producing Aβ in the form of insoluble plaques. This process has been comprehensively studied and described in a number of recent reviews. The aggregation of amyloid can be followed by simple spectroscopic techniques such as turbidity and tyrosine fluorescence studies. These methods were used to investigate the ability of 1 to dissociate pre-formed amyloid aggregates upon addition of metal ions, as well as prevent amyloid aggregation.
Metal ions bind to a histidine rich domain in amyloid producing Aβ in the form of insoluble plaques. This process has been extensively studied and described in a number of recent reviews.

[4] = Cu-ascorbate redox system with coumarin-3-carboxylic acid (CCA); format: biochemical
Text: As increased levels of ROS are associated with AD, Applicant's set out to investigate the antioxidant character of 1 compared to the heterocycles 2 and/or 3. […] Moreover, many of the pathways proposed to produce ROS leading to AD pathology involve metal ions. Applicant's therefore utilized the Cu-ascorbate redox system, Scheme 1, as a model to determine if the ligands could halt copper based redox activity under aerobic conditions:
Faller and co-workers employed this system to investigate the redox chemistry of amyloid systems with Cu. Coumarin-3-carboxylic acid (CCA), which generates fluorescent 7-hydroxy-CCA in the presence of hydroxyl radicals, was used to quantify the reduction of oxygen by copper redox-cycling in the presence of ascorbate.

[5] = log K constants with Cu^II; format: binding
Text: (§1) The ligand is the backbone to PCTA, a potential MRI contrast agent explored in recent years and has been repurposed for Applicant's work.

FRDA cells [6] = assay: DCFH-DA ROS assay with BSO; format: cell-based, human; conditions: 12 hours BSO 1 mM, compound 4 nM
Description: FIG. 6 is a graph showing DCFH-DA fluorescent response in FRDA cells after 12 hours exposure to BSO [1 mM] with 1-4 [4 nM].
FIG. 7 is a graph of DCFH-DA fluorescent response in FRDA cells after 12 hours exposure to BSO [1 mM] showing dose dependence with 1.
FIG. 9 is a graph of DCFH-DA fluorescent response in FRDA cells after 12 hours exposure to BSO [1 mM] showing dose dependence with 1 and 2.
The antioxidant activity of compound 1 compared to compounds 2-3 (Chart 1) was then studied using the cell-permeable fluorophore 2,7′-Dichlorodihydrofluorescin diacetate (DCFH-DA) as an indicator for ROS. DCFH-DA diffuses into cells and is deacetylated by cellular esterases to non-fluorescent 2′,7′-Dichlorodihydrofluorescin (DCFH). This species is subsequently oxidized to the highly fluorescent 2′,7′-Dichlorodihydrofluorescein (DCF) species in the presence of ROS. The fluorescent intensity is directly proportional to the amount of ROS present in cell cytosol. BSO (2-amino-4-(butylsulfonimidoyl)butanoic acid) was used to inhibit the first step of de novo glutathione synthesis, allowing us to observe the elevated intra-cellular [ROS] are thereby observed.
Cellular studies were carried out to evaluate the intra-cellular antioxidant efficacy and toxicity of compound 2 (Chart 2) compared to 1 using the cell-permeable fluorophore 2,7′-dichlorodihydrofluorescin diacetate (DCFH-DA) as an indicator for ROS. DCFH-DA diffuses into cells and is deacetylated by cellular esterases to non-fluorescent 2′,7′-dichlorodihydrofluorescin (DCFH) which is subsequently oxidized to the highly fluorescent 2′,7′-dichlorodihydrofluorescein (DCF) species in the presence of ROS. The fluorescence intensity is directly proportional to the amount of ROS present in cell cytosol.^11 BSO (2-amino-4-(butylsulfonimidoyl)butanoic acid) is a commonly used model for oxidative stress via inhibition of cytosolic glutathione synthesis resulting in elevated intra-cellular [ROS] and an increased fluorescent signal in the presence of DCFH (FIG. 9).

[7] = log K constants with Zn^II; format: binding
Text: as §1

amyloid aggregates = assay: TEM imaging of copper-induced amyloid aggregates; format: biochemical; conditions: incubated 12 hours
Description: FIG. 3 is an illustration of TEM Images showing (a) copper induced aggregation of amyloid and (b) its dissolution by 1.
Transmission electron microscopy (TEM) and Scanning Electron Microscopy (SEM) were utilized to study the morphology of the aggregates with and without chelators, as well. […] Aliquots from the stock used to make grid (a) were then incubated with 1 for 12 hours and then prepared for microscopy. The sizes of the aggregates upon treatment with 1 are an average of 1-2 orders of magnitude smaller and observably more diffuse, as shown in grid (b). SEM images also confirm the ability of the chelates to affect aggregate size as well.

Aβ1-40 [8] = assay: Tyr^10 fluorescence of Aβ1-40; format: biochemical
Text: FIG. 2 is a graph showing the addition of ligands 1-4 to aggregated Aβ results in reconstitution of Tyr^10 fluorescence which was decreased due to aggregate formation.
To further determine the capability of 1 to prevent or disrupt metal-ion induced amyloid aggregation, Applicant's studied Tyr fluorescence intensity. Recent reports have also utilized the natural fluorescence of the native Tyr^10 in the Aβ1-40 sequence to study the conformational dynamics of amyloid folding as it relates to AD and/or production of H2O2. As Tyr^10 is located within proximity to the metal binding pocket in Aβ1-40 the fluorescence intensity of the phenolic side chain decreases during the folding process due to environmental changes that occur locally. This work was supported by circular dichroism spectra, which verified that fluorescence intensity decreased as the conformation of amyloid changed to beta-sheets. […] Applicant's hypothesis was that Tyr fluorescence intensity should be restored to control levels upon addition of compounds 1-4 (Chart 1) to a solution of pre-formed metal aggregates, as shown below in FIG. 2. […] Similar results were also obtained for amyloid samples co-incubated with 1-4 prior to metal ion addition.
The macrocyclic compound 2 (Chart 2) is also a chelator capable of preventing metal-induced amyloid formation as well as disaggregation. Metal ions bind to a histidine rich domain in amyloid producing Aβ in the form of insoluble plaques. This process has been extensively studied and described in a number of recent reviews. […] Moreover, amyloid aggregates formed by metal ion co-incubation can be disaggregated by the addition of compounds 1 or 2 (FIG. 12b).

two separate cell lines = assay: Preliminary cell-viability screen; format: cell-based
Text: (§2) Compound 2 (Chart 2) exists largely as the pyridol tautomer as confirmed by NMR. The reactivity of pyridol/pyridone based compounds such as chelidamic acid have shown reactivity with OH radicals in solution to form bis-pyridones and is a different mechanism than pyridine based compounds such as 1 (Chart 2). This reactivity is attributed to the enhanced antioxidant capacity observed. Chelidamic acid is the pyridone congener to the starting material used to produce 1. Therefore similar methodologies to produce 2 in gram scale quantities were employed.

[9] = LA/DHLA; cited from earlier work
[10] = cited from earlier work
HT-22 cells = assay: Aβ and Cu^+2 toxicity protection (MTT); format: cell-based, mouse; conditions: compound 50 to 120 μM, Aβ 15 μM, copper 15 μM
Description: In FIG. 16 one can observe that compound 2 (LC) is capable of protection from ranges of 50 to 120 μM reaching 37% of increase of cell proliferation with respect to the control (Aβ+Cu^+2). It is also shown that Aβ toxicity (15 μM) increases upon addition of copper (15 μM) opening the possibility of explaining the mechanism of action of LC (compound 2) which involves the possible chelation of copper out of the plaques, although the possibility of assessing ROS is always present. The experiment is completed with several controls including just compound 2, (Chart 4) and just copper, for comparison purposes.
The same analysis was performed for compound 3, (Chart 4), keeping the same ranges of concentrations for the compound (50 to 120 μM) as well as amyloid and copper. Restoring of cell proliferation was observed from 3 to 17%. […]
(§3) (3-(4,5-dimethylthiazol-2-yl)-2,5-diphenyltetrazolium bromide) cells were seeded in a 96 well plate with a density of 5000 cells per well (in 100 μL per well). […] Media is discarded again and 100 μL of DMSO are added to each well, rocked for 5 minutes and the absorbance (A510) was measured using a Molecular Devices Kinetic Microplate Reader.

MTT cytotoxicity assay = format: cell-based; conditions: mouse, HT-22 hippocampal neuronal cells, HT-22 cells
Description: As these compounds show potential for future in vivo studies, the 3-(4,5-dimethythiazol-2-yl)-2,5-diphenyl tetrazolium bromide (MTT) assay was performed in order to test compounds 2, 3 of Chart 4 for cytotoxicity with HT-22 cells, which is a hippocampal neuronal cell line extracted from mice. This is a colorimetric assay that measures the mitochondrial activity of living cells in which MTT crosses into the mitochondria where it is reduced to media insoluble formazan (dark purple), which is later solubilized in DMSO and measured spectroscopically (λmax=540 nm). Since the reduction of MTT can only occur in living cells with undamaged mitochondria, this is a good assay to measure cell proliferation and cytotoxicity.
For the biological assays mouse hippocampal HT-22 cell line was used, incubated them at 37° C. in a humidified atmosphere 5% CO2, with Dulbecco's Modified Eagle Medium (500 ml) containing penicillin/streptomycin 100× (5 ml), Glutamine (100 mM, 5 ml), charcoal strip fetal bovine serum. […]
as §3

[11] = DPPH radical quenching assay; format: biochemical; conditions: 1250 μM
Text: as §2
As radicals are one product of miscompartmentalized metal ions, radical scavenging capability of compounds 1-3 (Chart 4) was tested using the DPPH assay. DPPH (2,2-diphenyl-1-picrylhydrazyl), is a dark purple (λmax=540 nm), stable free radical in solution that can be reduced to DPPHH in the presence of molecules with radical scavenging activity. This process results in a color change from dark purple to light yellow and can be followed spectroscopically by the decrease of the band at 540 nm. Applicants have, therefore, utilized this method to measure radical scavenging capability of their own organic molecules. BHT (butylhydroxytoluene) was used as a positive control due to its known antioxidant properties.
DPPH stock solution was prepared by dissolving 25 mg in 100 mL of absolute EtOH. The working radical solution was prepared by dilution with absolute EtOH to an absorbance of 1.3 at 512 nm. Stock solutions of the compounds tested were dissolved in DI H2O and EtOH 95% respectively and serial dilutions were made to get different concentrations. For the analysis 2 mL of the solutions were incubated with 2 mL of DPPH working solutions in the dark for 24 h. as well as 2 mL of DPPH working solution with 2 mL of H2O or EtOH to serve as blank. Analysis of the solutions was performed as follows: 1 mL of the sample solution was diluted with 1 mL of H2O shaken and the absorbance was measured at 515 nm.

In the case of `c1cc2nc(c1)CNCCNCCNC2` [1 (Chart 1), pyclen], the viability at 0.001 µM (FRDA cells [1]) is reported as greater than 85%, the “Trolox equivalents (ABTS radical)” value [2] is reported as 0.4 Trolox equivalents and the “disaggregation of pre-formed metal-induced Aβ1-40 aggregates (turbidity)” value (Aβ1-40 [3]) is reported as “reversed”. The “disaggregation of pre-formed metal-induced Aβ1-40 aggregates (turbidity)” value (Aβ1-40 [3]; listed as 1 (Chart 2)) was “disaggregated”, the “prevention of metal-induced Aβ1-40 aggregation (turbidity)” value (Aβ1-40 [3]; ligand co-incubated with amyloid before copper(II) or zinc(II) addition) was “prevents formation of aggregations” and the “OH. generation measured as 7-hydroxy-CCA fluorescence, ligand co-incubated” value ([4]; CCA 100 uM, ascorbate 300 uM, Cu^II 40 uM) was “prevented entirely”. For the same molecule, the “7-hydroxy-CCA signal after addition to running Cu-ascorbate system” value ([4]; added after two minutes co-incubation with CCA) was “leveling of the 7-hydroxy-CCA signal”, the “log K constants Cu^II” value [5] was 20 and the “increase of ROS over the negative control (media)” value (FRDA cells [6]) was 15%. The “log K constants Zn^II” value [7] was 14, the “decrease of amyloid aggregate size compared to the copper aggregates (TEM)” value (amyloid aggregates) was 1-2 orders of magnitude and the “reconstitution of Tyr^10 fluorescence of aggregated Aβ1-40” value (Aβ1-40 [8]; ligand added to pre-formed metal aggregates) was “equally effective”. For the same molecule, the “prevention of loss of Tyr^10 fluorescence of Aβ1-40” value (Aβ1-40 [8]; ligand co-incubated prior to metal ion addition, 24 hours) was “equally effective” and the “tolerance in cell-viability screen” value (two separate cell lines) was “large degree of tolerance”.

In the case of `O=C(O)CCCC[C@@H](S)CCS` (racemic) [DHLA, dihydrolipoic acid], the redox potential [9] is given as −320 mV and the pKa [10] is given as 4.7.

In the case of `O=C(CCCCC1CCSS1)N1CCNCCNCCNCC1` (racemic) [Compound 2 (Chart 4), (±)-5-(1,2-dithiolan-3-yl)-1-(1,4,7,10-tetraazacyclododecan-1-yl)pentan-1-one], the “increase of cell proliferation with respect to the control (Aβ+Cu^+2)” value (HT-22 cells) is reported as 37%, the EC50 at 48 h (MTT cytotoxicity assay) is reported as 312 µM and the “quenching of the DPPH radical” value [11] is reported as “equivalent amount of radical”.
